What was measured:
Assay type in all cases: functional, cell-based
HCT-116 = experiment: Antiproliferative activity against human HCT-116 cells after 48 hrs by MTT assay; settings: HCT-116, 48 h
HeLa = experiment: Antiproliferative activity against human HeLa cells after 48 hrs by MTT assay
HepG2 = experiment: Antiproliferative activity against human HepG2 cells after 48 hrs by MTT assay; settings: HepG2, 48 h
MCF7 = experiment: Antiproliferative activity against human MCF7 cells after 48 hrs by MTT assay; settings: MCF7, 48 h

Structure (SMILES)	IC50 (HCT-116) [µM]	IC50 (HeLa) [µM]	IC50 (HepG2) [µM]	IC50 (MCF7) [µM]
CC(=O)O[C@@H]1[C@@H](O[C@H]2CC[C@@]3(C)C(=CC[C@]4(O)[C@@H]3C[C@@H](OC(=O)/C=C(\C)C(C)C)[C@@]3(C)[C@]4(O)CC[C@@]3(O)C(C)=O)C2)OC[C@H](OC(C)=O)[C@H]1OC(C)=O	12	28.1	15.8	47
CC(=O)O[C@@H]1[C@@H](OC(C)=O)[C@H](O[C@H]2CC[C@@]3(C)C(=CC[C@]4(O)[C@@H]3C[C@@H](OC(=O)c3ccc(O)cc3)[C@@]3(C)[C@]4(O)CC[C@@]3(O)C(C)=O)C2)OC[C@H]1OC(C)=O	35.3	60.8	28.5	55.4
C[C@H](OC(=O)c1cccnc1)[C@]1(O)CC[C@@]2(O)[C@]1(C)[C@H](OC(=O)/C=C/c1ccccc1)C[C@@H]1[C@@]3(C)CC[C@H](O)CC3=CC[C@]12O [GAGAMININ]	69.9	96.4	65	> 100
CC(=O)[C@]1(O)CC[C@@]2(O)[C@]1(C)[C@H](OC(=O)/C=C(\C)C(C)C)C[C@@H]1[C@@]3(C)CC[C@H](O[C@H]4OC[C@H](O)[C@H](O)[C@@H]4O)CC3=CC[C@]12O	72.1	> 100	51.8	> 100
CC(=O)O[C@@H]1[C@@H](OC(C)=O)[C@H](C)O[C@@H](O[C@H]2CC[C@@]3(C)C(=CC[C@]4(O)[C@@H]3C[C@@H](OC(=O)c3ccc(O)cc3)[C@@]3(C)[C@]4(O)CC[C@@]3(O)C(C)=O)C2)[C@@H]1OC(C)=O	48.7	57.1	41.4	53.6
CC(=O)[C@]1(O)CC[C@@]2(O)[C@]1(C)[C@H](OC(=O)/C=C(\C)C(C)C)C[C@@H]1[C@@]3(C)CC[C@H](O[C@H]4C[C@H](O)[C@H](O)CO4)CC3=CC[C@]12O	36.8	86.5	39.8	93
CC(=O)O[C@@H]1[C@@H](O[C@H]2CC[C@@]3(C)C(=CC[C@]4(O)[C@@H]3C[C@@H](OC(=O)/C=C(\C)C(C)C)[C@@]3(C)[C@]4(O)CC[C@@]3(O)C(C)=O)C2)OC[C@H](OC(C)=O)[C@@H]1OC(C)=O	15.9	18.1	6.85	24.5
CC(=O)OC[C@H]1O[C@@H](O[C@H]2CC[C@@]3(C)C(=CC[C@]4(O)[C@@H]3C[C@@H](OC(=O)/C=C/c3ccccc3)[C@@]3(C)[C@]4(O)CC[C@@]3(O)[C@H](C)OC(=O)c3cccnc3)C2)[C@H](OC(C)=O)[C@@H](OC(C)=O)[C@@H]1OC(C)=O	36.1	79.6	26.4	82.8
CC(=O)OC[C@H]1O[C@@H](O[C@H]2CC[C@@]3(C)C(=CC[C@]4(O)[C@@H]3C[C@@H](OC(=O)/C=C/c3ccccc3)[C@@]3(C)[C@]4(O)CC[C@@]3(O)[C@H](C)OC(=O)c3cccnc3)C2)[C@H](OC(C)=O)[C@@H](OC(C)=O)[C@H]1OC(C)=O	7.11	20.7	8.49	24.5
CC(=O)OC[C@H]1O[C@@H](O[C@H]2CC[C@@]3(C)C(=CC[C@]4(O)[C@@H]3C[C@@H](OC(=O)/C=C(\C)C(C)C)[C@@]3(C)[C@]4(O)CC[C@@]3(O)C(C)=O)C2)[C@H](OC(C)=O)[C@@H](OC(C)=O)[C@@H]1OC(C)=O	26.6	> 100	65.8	93.4
CC(=O)O[C@@H]1[C@@H](OC(C)=O)[C@H](O[C@H]2CC[C@@]3(C)C(=CC[C@]4(O)[C@@H]3C[C@@H](OC(=O)/C=C(\C)C(C)C)[C@@]3(C)[C@]4(O)CC[C@@]3(O)C(C)=O)C2)OC[C@@H]1OC(C)=O	23.8	33.6	23.6	43.1
CC(=O)O[C@H]1C[C@H](O[C@H]2CC[C@@]3(C)C(=CC[C@]4(O)[C@@H]3C[C@@H](OC(=O)/C=C(\C)C(C)C)[C@@]3(C)[C@]4(O)CC[C@@]3(O)C(C)=O)C2)OC[C@H]1OC(C)=O	31.6	43.8	14.1	26.2
CC(=O)O[C@@H]1[C@@H](OC(C)=O)[C@H](O[C@H]2CC[C@@]3(C)C(=CC[C@]4(O)[C@@H]3C[C@@H](OC(=O)/C=C(\C)C(C)C)[C@@]3(C)[C@]4(O)CC[C@@]3(O)C(C)=O)C2)OC[C@H]1OC(C)=O	34.9	85.3	42.6	50.4
CC(=O)[C@]1(O)CC[C@@]2(O)[C@]1(C)[C@H](OC(=O)c1ccc(O)cc1)C[C@@H]1[C@@]3(C)CC[C@H](O[C@@H]4O[C@@H](C)[C@H](O)[C@@H](O)[C@H]4O)CC3=CC[C@]12O	60.3	91.3	54.6	88.5
CC(=O)O[C@@H]1[C@@H](OC(C)=O)[C@H](C)O[C@@H](O[C@H]2CC[C@@]3(C)C(=CC[C@]4(O)[C@@H]3C[C@@H](OC(=O)/C=C/c3ccccc3)[C@@]3(C)[C@]4(O)CC[C@@]3(O)[C@H](C)OC(=O)c3cccnc3)C2)[C@@H]1OC(C)=O	71.4	> 100	69.1	> 100
CC(=O)OC[C@H]1O[C@@H](O[C@H]2CC[C@@]3(C)C(=CC[C@]4(O)[C@@H]3C[C@@H](OC(=O)c3ccc(O)cc3)[C@@]3(C)[C@]4(O)CC[C@@]3(O)C(C)=O)C2)[C@H](OC(C)=O)[C@@H](OC(C)=O)[C@H]1OC(C)=O	9.32	22.8	9.9	20.8
CC(=O)N[C@H]1[C@H](O[C@H]2CC[C@@]3(C)C(=CC[C@]4(O)[C@@H]3C[C@@H](OC(=O)/C=C(\C)C(C)C)[C@@]3(C)[C@]4(O)CC[C@@]3(O)C(C)=O)C2)O[C@H](COC(C)=O)[C@@H](OC(C)=O)[C@@H]1OC(C)=O	17.3	23.8	5.5	21.1
CC(=O)[C@]1(O)CC[C@@]2(O)[C@]1(C)[C@H](OC(=O)/C=C(\C)C(C)C)C[C@@H]1[C@@]3(C)CC[C@H](O)CC3=CC[C@]12O [CAUDATIN]	64.1	> 100	65.9	> 100
CC(=O)O[C@H]1[C@@H](OC(C)=O)[C@@H](C)O[C@@H](O[C@H]2CC[C@@]3(C)C(=CC[C@]4(O)[C@@H]3C[C@@H](OC(=O)/C=C(\C)C(C)C)[C@@]3(C)[C@]4(O)CC[C@@]3(O)C(C)=O)C2)[C@@H]1OC(C)=O	20.3	44.3	23.8	38.3
CC(=O)O[C@H]1[C@H](OC(C)=O)[C@@H](O[C@H]2CC[C@@]3(C)C(=CC[C@]4(O)[C@@H]3C[C@@H](OC(=O)/C=C(\C)C(C)C)[C@@]3(C)[C@]4(O)CC[C@@]3(O)C(C)=O)C2)O[C@@H](C)[C@H]1OC(C)=O	18.4	31.7	18.9	31.5
CC(=O)O[C@@H]1[C@@H](OC(C)=O)[C@H](C)O[C@@H](O[C@H]2CC[C@@]3(C)C(=CC[C@]4(O)[C@@H]3C[C@@H](OC(=O)/C=C(\C)C(C)C)[C@@]3(C)[C@]4(O)CC[C@@]3(O)C(C)=O)C2)[C@@H]1OC(C)=O	26.1	> 100	72.8	95
CC(=O)OC[C@H]1O[C@@H](O[C@H]2CC[C@@]3(C)C(=CC[C@]4(O)[C@@H]3C[C@@H](OC(=O)c3ccc(O)cc3)[C@@]3(C)[C@]4(O)CC[C@@]3(O)C(C)=O)C2)[C@H](OC(C)=O)[C@@H](OC(C)=O)[C@@H]1OC(C)=O	66.2	95.8	74.5	90.9
CC(=O)[C@]1(O)CC[C@@]2(O)[C@]1(C)[C@H](OC(=O)/C=C(\C)C(C)C)C[C@@H]1[C@@]3(C)CC[C@H](O[C@@H]4OC[C@@H](O)[C@H](O)[C@H]4O)CC3=CC[C@]12O	90.9	> 100	90.9	95.9
CC(=O)[C@]1(O)CC[C@@]2(O)[C@]1(C)[C@H](OC(=O)c1ccc(O)cc1)C[C@@H]1[C@@]3(C)CC[C@H](O[C@@H]4O[C@H](CO)[C@@H](O)[C@H](O)[C@H]4O)CC3=CC[C@]12O	75.1	95.5	65.3	92.6
CC(=O)OC[C@H]1O[C@H](O[C@H]2CC[C@@]3(C)C(=CC[C@]4(O)[C@@H]3C[C@@H](OC(=O)/C=C(\C)C(C)C)[C@@]3(C)[C@]4(O)CC[C@@]3(O)C(C)=O)C2)[C@@H](OC(C)=O)[C@@H](OC(C)=O)[C@@H]1OC(C)=O	15.6	70.2	23.7	42.7
CC(=O)OC[C@H]1O[C@@H](O[C@H]2CC[C@@]3(C)C(=CC[C@]4(O)[C@@H]3C[C@@H](OC(=O)/C=C(\C)C(C)C)[C@@]3(C)[C@]4(O)CC[C@@]3(O)C(C)=O)C2)[C@H](OC(C)=O)[C@@H](OC(C)=O)[C@H]1OC(C)=O	7.41	24.8	9.7	16.9
CC(=O)[C@]1(O)CC[C@@]2(O)[C@]1(C)[C@H](OC(=O)/C=C(\C)C(C)C)C[C@@H]1[C@@]3(C)CC[C@H](O[C@@H]4OC[C@H](O)[C@H](O)[C@H]4O)CC3=CC[C@]12O	> 100	> 100	87.5	> 100
COc1cc2c(c(OC)c1OC)-c1ccc(OC)c(=O)cc1[C@@H](NC(C)=O)CC2 [COLCHICINE]	0.046		0.064	0.028
CC(=O)O[C@@H]1[C@@H](O[C@H]2CC[C@@]3(C)C(=CC[C@]4(O)[C@@H]3C[C@@H](OC(=O)/C=C(\C)C(C)C)[C@@]3(C)[C@]4(O)CC[C@@]3(O)C(C)=O)C2)OC[C@@H](OC(C)=O)[C@H]1OC(C)=O	29.6	60.5	52.8	52.6
CC(=O)[C@]1(O)CC[C@@]2(O)[C@]1(C)[C@H](OC(=O)c1ccc(O)cc1)C[C@@H]1[C@@]3(C)CC[C@H](O)CC3=CC[C@]12O	73	> 100	79.1	83.1

Source: ChEMBL document CHEMBL5143557, “Synthesis and biological evaluation of 3β-O-neoglycosides of caudatin and its analogues as potential anticancer agents” (Bioorg Med Chem, 2022)
